Values after ≈ are worked out from the molar mass of the structure shown.
What was measured:
Type in all cases: functional
Penicillium chrysogenum [1] = assay: Antifungal activity against Penicillium chrysogenum MTCC 161 at 1000 ug/ml after 48 hr by cup-plate method; settings: MTCC 161, 48 h, read-out: DIZ
Pseudomonas fluorescens [2] = assay: Antibacterial activity against Pseudomonas fluorescens MTCC 2421 at 1000 ug/ml after 48 hr by cup-plate method; settings: MTCC 2421, 48 h, read-out: DIZ
Bacillus pumilus [3] = assay: Antibacterial activity against Bacillus pumilus MTCC 1456 at 500 ug/ml after 48 hr by cup-plate method; settings: MTCC 1456, 48 h, read-out: DIZ
Pseudomonas fluorescens [4] = assay: Antibacterial activity against Pseudomonas fluorescens MTCC 2421 after 24 to 48 hr by tube dilution method
Pseudomonas fluorescens [5] = assay: Antibacterial activity against Pseudomonas fluorescens MTCC 2421 at 1250 ug/ml after 48 hr by cup-plate method; settings: MTCC 2421, 48 h, read-out: DIZ
Bacillus subtilis [6] = assay: Antibacterial activity against Bacillus subtilis MTCC 441 at 1250 ug/ml after 48 hr by cup-plate method; settings: MTCC 441, 48 h, read-out: DIZ
Aspergillus niger [7] = assay: Antifungal activity against Aspergillus niger MTCC 2546 at 1250 ug/ml after 48 hr by cup-plate method; settings: MTCC 2546, 48 h, read-out: DIZ
Escherichia coli [8] = assay: Antibacterial activity against Escherichia coli MTCC 1573 at 250 ug/ml after 48 hr by cup-plate method; settings: MTCC 1573, 48 h, read-out: DIZ
Micrococcus luteus [9] = assay: Antibacterial activity against Micrococcus luteus MTCC 1538 at 250 ug/ml after 48 hr by cup-plate method; settings: MTCC 1538, 48 h, read-out: DIZ
Aspergillus niger [10] = assay: Antifungal activity against Aspergillus niger MTCC 2546 after 24 to 48 hr by tube dilution method
Aspergillus niger [11] = assay: Antifungal activity against Aspergillus niger MTCC 2546 at 100 ug/ml after 48 hr by cup-plate method; settings: MTCC 2546, 48 h, read-out: DIZ
Staphylococcus aureus [12] = assay: Antibacterial activity against Staphylococcus aureus MTCC 1430 at 500 ug/ml after 48 hr by cup-plate method; settings: MTCC 1430, 48 h, read-out: DIZ
Escherichia coli [13] = assay: Antibacterial activity against Escherichia coli MTCC 1573 at 100 ug/ml after 48 hr by cup-plate method; settings: MTCC 1573, 48 h, read-out: DIZ
Micrococcus luteus [14] = assay: Antibacterial activity against Micrococcus luteus MTCC 1538 at 1250 ug/ml after 48 hr by cup-plate method; settings: MTCC 1538, 48 h, read-out: DIZ
Escherichia coli [15] = assay: Antibacterial activity against Escherichia coli MTCC 1573 at 750 ug/ml after 48 hr by cup-plate method; settings: MTCC 1573, 48 h, read-out: DIZ
Micrococcus luteus [16] = assay: Antibacterial activity against Micrococcus luteus MTCC 1538 at 500 ug/ml after 48 hr by cup-plate method; settings: MTCC 1538, 48 h, read-out: DIZ
Bacillus subtilis [17] = assay: Antibacterial activity against Bacillus subtilis MTCC 441 at 1000 ug/ml after 48 hr by cup-plate method; settings: MTCC 441, 48 h, read-out: DIZ
Escherichia coli [18] = assay: Antibacterial activity against Escherichia coli MTCC 1573 at 1250 ug/ml after 48 hr by cup-plate method; settings: MTCC 1573, 48 h, read-out: DIZ
Escherichia coli [19] = assay: Antibacterial activity against Escherichia coli MTCC 1573 at 1000 ug/ml after 48 hr by cup-plate method; settings: MTCC 1573, 48 h, read-out: DIZ
Bacillus pumilus [20] = assay: Antibacterial activity against Bacillus pumilus MTCC 1456 at 250 ug/ml after 48 hr by cup-plate method; settings: MTCC 1456, 48 h, read-out: DIZ
Bacillus pumilus [21] = assay: Antibacterial activity against Bacillus pumilus MTCC 1456 at 750 ug/ml after 48 hr by cup-plate method; settings: MTCC 1456, 48 h, read-out: DIZ
Penicillium chrysogenum [22] = assay: Antifungal activity against Penicillium chrysogenum MTCC 161 at 100 ug/ml after 48 hr by cup-plate method; settings: MTCC 161, 48 h, read-out: DIZ
Pseudomonas fluorescens [23] = assay: Antibacterial activity against Pseudomonas fluorescens MTCC 2421 at 100 ug/ml after 48 hr by cup-plate method; settings: MTCC 2421, 48 h, read-out: DIZ
Pseudomonas fluorescens [24] = assay: Antibacterial activity against Pseudomonas fluorescens MTCC 2421 at 500 ug/ml after 48 hr by cup-plate method; settings: MTCC 2421, 48 h, read-out: DIZ
Penicillium chrysogenum [25] = assay: Antifungal activity against Penicillium chrysogenum MTCC 161 at 1250 ug/ml after 48 hr by cup-plate method; settings: MTCC 161, 48 h, read-out: DIZ
Bacillus pumilus [26] = assay: Antibacterial activity against Bacillus pumilus MTCC 1456 at 100 ug/ml after 48 hr by cup-plate method; settings: MTCC 1456, 48 h, read-out: DIZ
Bacillus subtilis [27] = assay: Antibacterial activity against Bacillus subtilis MTCC 441 at 750 ug/ml after 48 hr by cup-plate method; settings: MTCC 441, 48 h, read-out: DIZ
Pseudomonas aeruginosa [28] = assay: Antibacterial activity against Pseudomonas aeruginosa MTCC 424 at 750 ug/ml after 48 hr by cup-plate method; settings: MTCC 424, 48 h, read-out: DIZ
Pseudomonas fluorescens [29] = assay: Antibacterial activity against Pseudomonas fluorescens MTCC 2421 at 250 ug/ml after 48 hr by cup-plate method; settings: MTCC 2421, 48 h, read-out: DIZ
Pseudomonas fluorescens [30] = assay: Antibacterial activity against Pseudomonas fluorescens MTCC 2421 at 750 ug/ml after 48 hr by cup-plate method; settings: MTCC 2421, 48 h, read-out: DIZ
Bacillus subtilis [31] = assay: Antibacterial activity against Bacillus subtilis MTCC 441 at 100 ug/ml after 48 hr by cup-plate method; settings: MTCC 441, 48 h, read-out: DIZ
Micrococcus luteus [32] = assay: Antibacterial activity against Micrococcus luteus MTCC 1538 at 1000 ug/ml after 48 hr by cup-plate method; settings: MTCC 1538, 48 h, read-out: DIZ
Bacillus subtilis [33] = assay: Antibacterial activity against Bacillus subtilis MTCC 441 after 24 to 48 hr by tube dilution method
Penicillium chrysogenum [34] = assay: Antifungal activity against Penicillium chrysogenum MTCC 161 at 500 ug/ml after 48 hr by cup-plate method; settings: MTCC 161, 48 h, read-out: DIZ
Pseudomonas aeruginosa [35] = assay: Antibacterial activity against Pseudomonas aeruginosa MTCC 424 at 1250 ug/ml after 48 hr by cup-plate method; settings: MTCC 424, 48 h, read-out: DIZ
Penicillium chrysogenum [36] = assay: Antifungal activity against Penicillium chrysogenum MTCC 161 after 24 to 48 hr by tube dilution method
Aspergillus niger [37] = assay: Antifungal activity against Aspergillus niger MTCC 2546 at 1000 ug/ml after 48 hr by cup-plate method; settings: MTCC 2546, 48 h, read-out: DIZ
Penicillium chrysogenum [38] = assay: Antifungal activity against Penicillium chrysogenum MTCC 161 at 250 ug/ml after 48 hr by cup-plate method; settings: MTCC 161, 48 h, read-out: DIZ
Bacillus pumilus [39] = assay: Antibacterial activity against Bacillus pumilus MTCC 1456 after 24 to 48 hr by tube dilution method
Staphylococcus aureus [40] = assay: Antibacterial activity against Staphylococcus aureus MTCC 1430 at 1000 ug/ml after 48 hr by cup-plate method; settings: MTCC 1430, 48 h, read-out: DIZ
Pseudomonas aeruginosa [41] = assay: Antibacterial activity against Pseudomonas aeruginosa MTCC 424 after 24 to 48 hr by tube dilution method
Staphylococcus aureus [42] = assay: Antibacterial activity against Staphylococcus aureus MTCC 1430 after 24 to 48 hr by tube dilution method
Micrococcus luteus [43] = assay: Antibacterial activity against Micrococcus luteus MTCC 1538 at 750 ug/ml after 48 hr by cup-plate method; settings: MTCC 1538, 48 h, read-out: DIZ
Pseudomonas aeruginosa [44] = assay: Antibacterial activity against Pseudomonas aeruginosa MTCC 424 at 1000 ug/ml after 48 hr by cup-plate method; settings: MTCC 424, 48 h, read-out: DIZ
Escherichia coli [45] = assay: Antibacterial activity against Escherichia coli MTCC 1573 at 500 ug/ml after 48 hr by cup-plate method; settings: MTCC 1573, 48 h, read-out: DIZ

NC(=S)N1N=C(c2cccc3ccccc23)CC1c1ccc([N+](=O)[O-])cc1 (stereo not given)
zone of inhibition at 1000 µg/mL (Penicillium chrysogenum [1]): 21 mm
zone of inhibition at 1000 µg/mL (Pseudomonas fluorescens [2]): 23 mm
zone of inhibition at 500 µg/mL (Bacillus pumilus [3]): 16 mm
MIC (Pseudomonas fluorescens [4]): 30 µg/mL (≈ 79.7 µM)
zone of inhibition at 1250 µg/mL (Pseudomonas fluorescens [5]): 24 mm
zone of inhibition at 1250 µg/mL (Bacillus subtilis [6]): 22 mm
zone of inhibition at 1250 µg/mL (Aspergillus niger [7]): 26 mm
zone of inhibition at 250 µg/mL (Escherichia coli [8]): 9 mm
zone of inhibition at 250 µg/mL (Micrococcus luteus [9]): 9 mm
MIC (Aspergillus niger [10]): 30 µg/mL (≈ 79.7 µM)
zone of inhibition at 100 µg/mL (Aspergillus niger [11]): 10 mm
zone of inhibition at 500 µg/mL (Staphylococcus aureus [12]): 10 mm
zone of inhibition at 100 µg/mL (Escherichia coli [13]): 8 mm
zone of inhibition at 1250 µg/mL (Micrococcus luteus [14]): 19 mm
zone of inhibition at 750 µg/mL (Escherichia coli [15]): 14 mm
zone of inhibition at 500 µg/mL (Micrococcus luteus [16]): 11 mm
zone of inhibition at 1000 µg/mL (Bacillus subtilis [17]): 19 mm
zone of inhibition at 1250 µg/mL (Escherichia coli [18]): 18 mm
zone of inhibition at 1000 µg/mL (Escherichia coli [19]): 16 mm
zone of inhibition at 250 µg/mL (Bacillus pumilus [20]): 11 mm
zone of inhibition at 750 µg/mL (Bacillus pumilus [21]): 18 mm
zone of inhibition at 100 µg/mL (Penicillium chrysogenum [22]): 10 mm
zone of inhibition at 100 µg/mL (Pseudomonas fluorescens [23]): 8 mm
zone of inhibition at 500 µg/mL (Pseudomonas fluorescens [24]): 18 mm
zone of inhibition at 1250 µg/mL (Penicillium chrysogenum [25]): 23 mm
zone of inhibition at 100 µg/mL (Bacillus pumilus [26]): 10 mm
zone of inhibition at 750 µg/mL (Bacillus subtilis [27]): 16 mm
zone of inhibition at 750 µg/mL (Pseudomonas aeruginosa [28]): 16 mm
zone of inhibition at 250 µg/mL (Pseudomonas fluorescens [29]): 10 mm
zone of inhibition at 750 µg/mL (Pseudomonas fluorescens [30]): 22 mm
zone of inhibition at 100 µg/mL (Bacillus subtilis [31]): 9 mm
zone of inhibition at 1000 µg/mL (Micrococcus luteus [32]): 16 mm
MIC (Bacillus subtilis [33]): 30 µg/mL (≈ 79.7 µM)
zone of inhibition at 500 µg/mL (Penicillium chrysogenum [34]): 16 mm
zone of inhibition at 1250 µg/mL (Pseudomonas aeruginosa [35]): 22 mm
MIC (Penicillium chrysogenum [36]): 30 µg/mL (≈ 79.7 µM)
zone of inhibition at 1000 µg/mL (Aspergillus niger [37]): 24 mm
zone of inhibition at 250 µg/mL (Penicillium chrysogenum [38]): 11 mm
MIC (Bacillus pumilus [39]): 30 µg/mL (≈ 79.7 µM)
zone of inhibition at 1000 µg/mL (Staphylococcus aureus [40]): 12 mm
MIC (Pseudomonas aeruginosa [41]): 50 µg/mL (≈ 133 µM)
MIC (Staphylococcus aureus [42]): 150 µg/mL (≈ 398 µM)
zone of inhibition at 750 µg/mL (Micrococcus luteus [43]): 14 mm
zone of inhibition at 1000 µg/mL (Pseudomonas aeruginosa [44]): 19 mm
zone of inhibition at 500 µg/mL (Escherichia coli [45]): 11 mm

— ChEMBL document CHEMBL3044945, “Synthesis of 1,3,5-trisubstituted pyrazoline nucleus containing compounds and screening for antimicrobial activity” (2012)
